Results from patent US7659251B2, “Ligand for G-protein coupled receptor FPRL2” (priority 2004, dated 2010).

Columns and labels:
FPRL2 = molecular target: T1, FPRL2 (Homo sapiens, UniProt P25089); experiment: cAMP accumulation assay (HTRF, forskolin) on FPRL2-expressing CHO-K1 cells; type: cell-based; design: expressed in transfected cells; host or cells: CHO-K1; conditions: CHO-K1 cells expressing FPRL2 but not G alpha 16; without forskolin
T1 sequence (P25089 1-353): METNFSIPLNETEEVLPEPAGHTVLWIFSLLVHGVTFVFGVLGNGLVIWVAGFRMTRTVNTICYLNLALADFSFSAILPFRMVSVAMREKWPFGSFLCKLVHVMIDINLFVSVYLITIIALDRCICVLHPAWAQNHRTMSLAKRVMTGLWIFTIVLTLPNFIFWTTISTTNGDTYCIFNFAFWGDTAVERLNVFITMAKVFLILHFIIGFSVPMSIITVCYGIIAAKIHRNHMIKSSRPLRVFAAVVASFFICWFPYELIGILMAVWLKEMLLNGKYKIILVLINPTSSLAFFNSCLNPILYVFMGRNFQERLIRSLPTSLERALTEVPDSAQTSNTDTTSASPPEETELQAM
Method: The cAMP concentrations were determined using a homogeneous time-resolved fluorescence (HTRF) kit (Cis Bio International). […] The reaction was stopped by the successive addition of cAMP-XL665 and anti-cAMP cryptate diluted in lysis buffer. The plates were incubated for 60 min at room temperature and read on a Rubystar fluorimeter (BMG). […] A calibration curve was obtained by plotting delta F % versus cAMP concentrations. […] The aequorin-based assay was performed with or without overnight pretreatment with 100 ng/ml Pertussis toxin. […] For FPRL2 polymorphism analysis, HEK cells were transiently transfected with empty and wild-type or Asp338H is FPRL2-containing pcdna vector using calcium phosphate method. Cells were recovered 48 hours later and used for FACS or cAMP experiments.

monocytes = experiment: Ca2+ mobilization assay on monocytes; type: cell-based, human; conditions: 100 nM F2L; FIG. 13C
Method: (§1) Monocyte-derived DCs were generated either from the adherent fraction of PBMCs cultured with GM-CSF (800 U/ml) and […] (500 U/ml), or from Percoll-purified monocytes cultured with GM-CSF (50 ng/ml) and IL-13 (20 ng/ml), for 5 to 7 days. For Ca^2+ mobilization assay, monocytes were obtained by negative selection with the Monocyte Isolation Kit II (Miltenyi Biotec). […] For Ca^2+ mobilization assays, monocyte-derived DCs or monocytes (5×10^5 cells/ml in HBSS without phenol red but containing 0.1% BSA and 1 mM Probenecid (Sigma)) were loaded with 4 μM Fluo 4 (Molecular Probes) for 1 h at 20° C. in the dark. The loaded cells were washed twice, resuspended at 1 to 2×10^6 cells/ml and 50 μl of cell suspension was distributed per well of a 96 well plate (Viewplate, Packard Bioscience). Reading was performed in a Fluostar fluorimeter (BMG) at 25° C.: 50 μl of ligand-containing medium was injected, and the fluorescence at 520 nm was recorded every second for 1 to 3 min. Each condition was performed in triplicate, the mean fluorescence for each time point was calculated, and the curves were normalized by subtracting the mean value of the five measurements preceding the injection.

FPR = molecular target: T2, FPR (Homo sapiens, UniProt P21462, E346A/V101L); experiment: Competition binding on FPR-expressing CHO-K1 cells, tracer [125I]-WKYMVm
T2 construct: expressed in transfected cells; host or cells: CHO-K1 (with or without Galpha16 and apoaequorin)
T2 sequence (P21462 1-350 V101L/E346A): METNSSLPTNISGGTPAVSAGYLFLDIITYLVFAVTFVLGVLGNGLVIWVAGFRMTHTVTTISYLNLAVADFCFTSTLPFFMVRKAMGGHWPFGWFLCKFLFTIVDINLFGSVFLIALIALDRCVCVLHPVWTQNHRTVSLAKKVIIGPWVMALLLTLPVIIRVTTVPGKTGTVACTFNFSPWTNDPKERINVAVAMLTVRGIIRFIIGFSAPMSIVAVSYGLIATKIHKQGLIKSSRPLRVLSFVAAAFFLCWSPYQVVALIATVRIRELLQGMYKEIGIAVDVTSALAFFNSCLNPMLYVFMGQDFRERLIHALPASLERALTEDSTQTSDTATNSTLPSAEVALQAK
Method: (§2) FPRL2, FPRL1 and FPR-expressing CHO-K1 cells were plated in 24 wells plates (200,000 cells per well for FPRL2, and 100,000 cells per well for the two other receptors). The next day, the cells were washed twice with a KRH buffer containing 280 mM saccharose and, for FPRL1 and FPR, 0.1 % NaN3. […] Cells were washed twice with ice cold buffer, total radioactivity was recovered with 1 M […] and counted in a gamma counter for […]

ERK1/2 MAP-kinases = experiment: ERK1/2 activation by Western blotting in FPRL2-expressing CHO-K1 cells; type: cell-based, human
Method: The cAMP concentrations were determined using a homogeneous time-resolved fluorescence (HTRF) kit (Cis Bio International). Briefly, cells were detached, resuspended in Krebs Ringer Hepes buffer containing 1 mM 3-Isobutyl-1-methylxanthine, and submitted to 10 μM forskolin, alone or together with increasing concentrations of agonists for 30 min at room temperature. The reaction was stopped by the successive addition of cAMP-XL665 and anti-cAMP cryptate diluted in lysis buffer. The plates were incubated for 60 min at room temperature and read on a Rubystar fluorimeter (BMG). […] A calibration curve was obtained by plotting delta F % versus cAMP concentrations. ERK1/2 activation was assayed by Western blotting, using an anti-phospho-p42/44 monoclonal antibody (E10, Cell Signaling Technology) as described (46). The aequorin-based assay was performed with or without overnight pretreatment with 100 ng/ml Pertussis toxin. […] For FPRL2 polymorphism analysis, HEK cells were transiently transfected with empty and wild-type or Asp338H is FPRL2-containing pcdna vector using calcium phosphate method. Cells were recovered 48 hours later and used for FACS or cAMP experiments.

monocyte-derived DCs = experiment: Ca2+ mobilization assay on monocyte-derived DCs; type: cell-based, human; conditions: dose-dependent; FIG. 13A
Method: as §1

FPRL1 = molecular target: T3, FPRL1 (Homo sapiens, UniProt P25090); experiment: Competition binding on FPRL1-expressing CHO-K1 cells, tracer [125I]-WKYMVm; conditions: up to concentrations of 3 μM
T3 construct: expressed in transfected cells; host or cells: CHO-K1 (with or without Galpha16 and apoaequorin)
T3 sequence (P25090 1-351): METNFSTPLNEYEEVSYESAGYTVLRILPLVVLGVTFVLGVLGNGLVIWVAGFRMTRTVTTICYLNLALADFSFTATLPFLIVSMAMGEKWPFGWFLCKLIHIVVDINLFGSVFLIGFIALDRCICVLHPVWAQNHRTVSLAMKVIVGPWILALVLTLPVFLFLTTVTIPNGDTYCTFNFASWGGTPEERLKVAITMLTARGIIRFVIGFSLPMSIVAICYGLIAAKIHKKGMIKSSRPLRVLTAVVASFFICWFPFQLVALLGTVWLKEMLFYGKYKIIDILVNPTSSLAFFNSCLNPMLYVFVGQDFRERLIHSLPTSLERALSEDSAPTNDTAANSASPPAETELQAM
Method: as §2

Structure (SMILES): CC[C@H](C)[C@H](NC(=O)[C@H](CCSC)NC(=O)CNC(=O)[C@H](CC(C)C)NC(=O)[C@H](CCSC)NC(C)=O)C(=O)N[C@@H](CCCCN)C(=O)N[C@@H](CC(N)=O)C(=O)N[C@@H](CO)C(=O)N[C@@H](CC(C)C)C(=O)N[C@@H](Cc1ccccc1)C(=O)NCC(=O)N[C@@H](CO)C(=O)N[C@H](C(=O)N[C@@H](CCC(=O)O)C(=O)N[C@H](C(=O)N[C@@H](Cc1c[nH]c2ccccc12)C(=O)N1CCC[C@H]1C(=O)N[C@@H](Cc1c[nH]c2ccccc12)C(=O)N[C@@H](CCC(N)=O)C(=O)N[C@H](C(=O)N[C@@H](CC(C)C)C(=O)O)C(C)C)[C@@H](C)O)C(C)C [F2L]
- stimulation of cAMP production by itself (FPRL2): unable to stimulate cAMP production
- calcium mobilization in purified monocytes (monocytes): Calcium mobilization was also observed
- IC50 (FPR; FPR, −Log of IC50 in Mol/L, mean ± s.e.m., read-out: pIC50 (binding assay) (converted)): > 1000 nM
- competition for FPR binding (FPR; up to concentrations of 3 μM, tracer [125I]WKYMVm): no competition
- time of maximal ERK1/2 phosphorylation (ERK1/2 MAP-kinases; 100 nM F2L, FIG. 11J): 15 min
- concentrations inducing phosphorylation of the ERK1/2 MAP-kinases (ERK1/2 MAP-kinases; stimulation for 10 min, FIG. 11I): picomolar concentrations
- intracellular Ca2+ flux in immature DCs (monocyte-derived DCs): promoted intracellular Ca^2+ flux
- competition for FPRL1 binding (FPRL1): no competition
